Results from publication PMC5834442, “Identifying inhibitors of the Leishmania inositol phosphorylceramide synthase with antiprotozoal activity using a yeast-based assay and ultra-high throughput screening platform” (Scientific Reports, 2018).
Like-named read-outs stand apart in the source and are kept apart here.

How the values were obtained:
[1] = test system: L. donovani (MHOM/SD/62/1S-CL2D, LdBOB) axenic amastigotes; assay: Leishmania donovani axenic amastigote dose response assay (resazurin); format: cell-based; details: -logIC50 mol against L. donovani (LdBOB) axenic amastigotes, read-out: pIC50 Axenic (converted)
HepG2 cells = assay: Mammalian cell cytotoxicity assay (CellTiter-Glo); format: cell-based, human; details: for IC50: Homo sapiens, -logIC50 mol against HepG2, read-out: PIC50 HepG2 (converted)
[2] = test system: intra-macrophage Leishmania donovani amastigotes; assay: Intramacrophage Leishmania donovani assay (high content imaging); format: cell-based; details: Leishmania donovani
THP-1 macrophages = assay: Host cell toxicity in the intramacrophage assay; format: cell-based, human; details: for IC50: Homo sapiens, THP-1 host cells in intramacrophage assay, read-out: pIC50 THP-1 (converted)
[3] = selectivity: pIC50 axenic minus pIC50 HepG2
[4] = intramacrophage L. donovani, read-out: pIC50 InMac (converted)
[5] = selectivity: pIC50 InMac minus pIC50 THP-1
[6] = selectivity, pIC50 axenic minus pIC50 HepG2
[7] = intramacrophage L. donovani amastigotes, read-out: pIC50 InMac (converted)
[8] = selectivity, pIC50 InMac minus pIC50 THP-1
[9] = −logIC50 M, L. donovani infected THP-1 macrophages, 96 hours, read-out: pIC50 against intra-macrophage L. donovani amastigotes (converted)

SMILES	IC50 [1] [µM]	IC50 (HepG2 cells) [µM]	pSI v HepG2 (HepG2 cells; [3])	IC50 [2, 4] [µM]	IC50 (THP-1 macrophages) [µM]	pSI v THP-1 (THP-1 macrophages; [5])	pSI v HepG2 (HepG2 cells; [6])	IC50 [2, 7] [µM]	pSI v THP-1 (THP-1 macrophages; [8])	IC50 [2, 9] [µM]	pSI v HepG2 (HepG2 cells)
CC(=O)N1N=C(c2ccco2)OC1COc1ccc(Cl)cc1C (stereo not shown) [ST/1451140]	6.92	> 100	1.16	> 50.1	> 50.1	0.00	–	–	–	–	–
O=C(O)c1ccccc1Sc1ncnc2scc(-c3ccccc3)c12 [ST/837236]	9.77	> 100	–	–	> 50.1	–	1.01	40.7	0.09	–	–
COC1(C)CCC(=Cc2ccc(Cl)cc2)CC1(O)Cn1ccnc1 (stereo not shown) [ST/1099846]	2.95	72.4	1.39	–	> 50.1	–	–	–	–	–	–
N#Cc1ccc(N2CCCC[C@H]2c2cccnc2)c([N+](=O)[O-])c1 [compound 5]	–	–	–	–	–	–	–	–	–	2	–
CS(=O)(=O)c1oc(-c2ccc(F)cc2)nc1S(=O)(=O)c1ccc(Cl)cc1 [ST/1032211]	0.437	17.4	1.60	4.27	3.63	-0.07	–	–	–	–	–
O=C(NC1CCN(Cc2ccc(Cl)s2)CC1)N1CCc2cc(Cl)ccc21 [ST/1291407]	2.88	67.6	1.37	2.09	6.03	0.46	–	–	–	–	–
CNC(=O)c1ccsc1NC(=O)c1ccc([N+](=O)[O-])s1 [compound 4]	–	–	–	–	–	–	–	–	–	1.26	–
Cc1[nH]c2ccccc2c(=O)c1Cc1ccc(OC(F)(F)F)cc1 [4598W 92C*A]	1.55	95.5	1.79	–	–	–	–	–	–	–	–
NC(=O)c1ccsc1NC(=O)c1ccc([N+](=O)[O-])s1 [ST/918837]	0.331	> 100	–	–	26.9	–	2.48	2.04	1.12	–	–
Cc1nc(-c2ccccc2)c(-c2ccnc(Nc3cc(S(N)(=O)=O)ccc3C)n2)s1 [N6896-93-B1]	1.55	> 100	1.81	–	–	–	–	–	–	–	–
N#Cc1ccccc1Cn1cc(C(=O)c2ccccc2)c2ccccc21 [ST/1274537]	3.55	> 100	–	–	–	–	–	–	–	–	1.45
O=C(O)C(F)(F)F.O=S(=O)(c1ccc2c(c1)CCN(Cc1cccnc1)CC2)n1ccc2c(F)cccc21 [CS100462-069A14B4]	0.447	52.5	–	2	33.9	1.23	–	–	–	–	2.07
CNC(=O)c1ccsc1NC(=O)c1ccc([N+](=O)[O-])s1 [ST/492114]	0.891	> 100	2.05	1.41	> 50.1	1.55	–	–	–	–	–
Cc1ccc(S(=O)(=O)Nc2cc(Cl)c(Cl)cc2Cl)cc1 [ST/411835]	7.08	> 100	1.15	–	–	–	–	–	–	–	–
Cc1ncccc1Oc1ncc(Cl)cc1S(=O)(=O)Nc1cccc(Cl)c1F [AV207107-107A1]	8.13	> 100	1.09	> 50.1	> 50.1	0.00	–	–	–	–	–
O=C(Nc1cccc(Cl)c1)Nc1ccc2nnsc2c1 [SC/98031]	6.61	17.8	0.43	–	–	–	–	–	–	–	–
O=[N+]([O-])c1cc(NS(=O)(=O)c2ccc(Cl)c(C(F)(F)F)c2)ccc1F [ST/654862]	4.17	38.9	0.97	–	–	–	–	–	–	–	–
Cc1cccc2sc(N(Cc3cccnc3)C(=O)C3CCCCC3)nc12 [ST/712281]	3.16	85.1	1.43	–	–	–	–	–	–	–	–
CCCCCNC(=O)c1c(O)c2ccccc2[nH]c1=O [ST/243992]	2.09	> 100	1.68	> 50.1	> 50.1	0.00	–	–	–	–	–
N#Cc1ccc(C=C(C(=O)Nc2ccccc2Cl)C(=O)Nc2ccccc2Cl)cc1 [ST/786454]	0.0741	3.63	1.69	–	–	–	–	–	–	–	–
CN(C)S(=O)(=O)c1ccc(Cl)c(NS(=O)(=O)c2ccc(C(C)(C)C)cc2)c1 [ST/1238223]	6.76	> 100	1.17	> 50.1	> 50.1	0.00	–	–	–	–	–
COc1ccccc1-c1nn(-c2c(C)cccc2C)c2[nH]c(=O)cc(C(F)(F)F)c12 [ST/1471361]	7.94	> 100	1.10	–	–	–	–	–	–	–	–
Cc1ccc(-c2cnc(N)c(-c3nc4ccc(F)cc4[nH]3)c2)cc1 [HL209813-065A1]	7.59	75.9	1.00	–	–	–	–	–	–	–	–
CC(=O)N1N=C(COc2ccc(Cl)cc2C)OC1c1cccs1 (stereo not shown) [ST/1455408]	7.76	97.7	1.10	> 50.1	> 50.1	0.00	–	–	–	–	–

SMILES	IC50 [1] [µM]	IC50 (HepG2 cells) [µM]	pSI v HepG2 (HepG2 cells; [3])	IC50 [2, 4] [µM]	IC50 (THP-1 macrophages) [µM]	pSI v THP-1 (THP-1 macrophages; [5])	pSI v HepG2 (HepG2 cells; [6])	IC50 [2, 7] [µM]	pSI v THP-1 (THP-1 macrophages; [8])	IC50 [2, 9] [µM]	pSI v HepG2 (HepG2 cells)
COc1ccc(CN2CCN(S(=O)(=O)c3ccc(OC(F)(F)F)cc3)CC2)cc1 [SC/122159]	0.275	> 100	2.56	35.5	> 50.1	0.15	–	–	–	–	–
CC1(C)CCC(=Cc2ccc(Cl)cc2)CC1(O)Cn1ccnc1 (stereo not shown) [ST/1098001]	5.5	46.8	0.93	–	–	–	–	–	–	–	–
O=C(c1cccc(F)c1)c1coc2ccc(Br)cc2c1=O [ST/472875]	2.29	63.1	1.44	–	–	–	–	–	–	–	–
O=C(O)C(F)(F)F.O=S(=O)(c1ccc2c(c1)CCN(Cc1ccc(F)cc1)CC2)n1cccc1 [CS100462-069A11B16]	0.0229	> 100	–	3.31	31.6	0.98	–	–	–	–	3.64
O=C(Nc1cccc(S(=O)(=O)Nc2ccccc2Cl)c1)c1ccc([N+](=O)[O-])o1 [ST/579040]	0.49	22.4	1.66	11.2	12	0.03	–	–	–	–	–
O=C(Nc1nnc(-c2ccccc2)o1)c1ccc2c(c1)CCCC2 [ST/912241]	1.23	> 100	–	–	–	–	1.91	–	–	–	–
Cc1cc(C)n2nc(S(=O)(=O)Nc3ccccc3[N+](=O)[O-])nc2n1 [ST/512740]	9.33	> 100	1.03	> 50.1	> 50.1	0.00	–	–	–	–	–
N#Cc1ccc(N2CCCC[C@H]2c2cccnc2)c([N+](=O)[O-])c1.O=C(O)C(F)(F)F.O=C(O)C(F)(F)F [MA102475-064A1B46]	5.01	95.5	–	2.04	> 50.1	1.39	–	–	–	–	1.28
Cc1ccc(-c2ccnc(-c3ccc(O)cc3)n2)cc1 [SC/128042]	6.61	> 100	1.18	–	–	–	–	–	–	–	–
COc1cc([N+](=O)[O-])ccc1NC(=O)Nc1ccc(OC(F)(F)F)cc1 [ST/871026]	6.92	13.2	–	–	–	–	0.28	–	–	–	–
CC(C)CCN1C(=O)C(N)C(=O)N(CC2CCCCC2)c2ccccc21 (stereo not shown) [VMTA/1987/36/2]	2	81.3	–	–	> 50.1	–	1.61	8.13	0.79	–	–
CCCc1cc(=O)[nH]c(Nc2cc(Cl)cc(Cl)c2)n1 [ST/826453]	8.91	14.1	–	–	–	–	0.20	–	–	–	–
NC(=O)c1ccsc1NC(=O)c1ccc([N+](=O)[O-])s1 [compound 3]	–	–	–	–	–	–	–	–	–	2	–
Clc1cccc(Nc2nc(-c3ccncc3)cs2)c1 [ST/755059]	6.76	32.4	0.68	–	–	–	–	–	–	–	–
Clc1ccc(Cn2nnc(-c3ccc(CN4CCOCC4)cc3)n2)cc1 [ST/852088]	3.24	> 100	–	–	–	–	1.49	–	–	–	–
C=CCOc1ccc(-c2nc(-c3ccc4c(c3)CCNCC4)no2)cc1Cl.Cl [N11110-83-1]	7.94	4.37	-0.26	–	–	–	–	–	–	–	–
Cc1ccc(NC(=O)Nc2ccc(Cl)c([N+](=O)[O-])c2)cc1 [ST/875327]	9.55	22.9	–	–	–	–	0.38	–	–	–	–
O=S(=O)(Nc1cccc(F)c1CN1CCC(F)(F)C1)c1ccc(Cl)c(Cl)c1 [DS105792-004A6B1]	9.12	47.9	0.72	–	–	–	–	–	–	–	–
O=C(Nc1cc(C(F)(F)F)ccc1Cl)c1ccccc1O [SC/67526]	5.25	15.1	0.46	–	–	–	–	–	–	–	–
O=C(Nc1nc2ccc([N+](=O)[O-])cc2s1)c1cc(Cl)sc1Cl [ST/489542]	1.29	10	0.89	–	–	–	–	–	–	–	–
Cc1ccccc1C(=O)N(Cc1cccnc1)c1nc2c(F)cccc2s1 [ST/1131244]	8.13	52.5	0.81	–	–	–	–	–	–	–	–
O=C(Nc1ccc(Cl)c(Cl)c1)Nc1ccc(F)c([N+](=O)[O-])c1 [ST/1276812]	3.55	10	0.45	–	–	–	–	–	–	–	–
O=C(Nc1ccc2ncsc2c1)c1ccc(Br)s1 [ST/1280764]	6.92	> 100	1.16	–	–	–	–	–	–	–	–
Oc1ccc(-c2nccc(-c3ccc(Cl)cc3)n2)cc1 [SC/101464]	2.75	> 100	1.56	–	–	–	–	–	–	–	–
